Data from patent US20070219214A1, “Dual NK2/NK3-antagonists, pharmaceutical compositions comprising them, and processes for their preparation” (Solvay pharmaceuticals GmbH, priority 2006, published 2007).

Assays:
[1] = target: T1, NK3-receptor (Cavia porcellus, UniProt P30098); experiment: Functional NK3-receptor antagonism in ileal preparations isolated from guinea pigs; conditions: guinea pig ileum, [MePhe7]-neurokinin B-induced contraction
T1 construct: from tissue; host or cells: whole animal (Dunkin Hartley guinea pigs), in vivo
T1 sequence (P30098 1-440): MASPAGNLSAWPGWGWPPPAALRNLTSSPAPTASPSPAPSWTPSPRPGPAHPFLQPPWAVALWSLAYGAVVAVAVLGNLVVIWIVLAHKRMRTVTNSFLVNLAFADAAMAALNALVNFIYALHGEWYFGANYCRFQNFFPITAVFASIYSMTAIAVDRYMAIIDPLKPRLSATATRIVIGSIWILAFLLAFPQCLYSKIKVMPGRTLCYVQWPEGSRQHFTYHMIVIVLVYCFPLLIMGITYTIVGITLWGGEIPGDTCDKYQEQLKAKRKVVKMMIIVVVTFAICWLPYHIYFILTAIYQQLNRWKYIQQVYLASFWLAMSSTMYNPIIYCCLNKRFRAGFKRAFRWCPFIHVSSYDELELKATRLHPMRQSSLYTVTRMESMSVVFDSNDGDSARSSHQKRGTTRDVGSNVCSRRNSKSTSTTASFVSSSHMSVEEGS
Method: 7. Determination of Functional NK3-Receptor Antagonism of Test Compounds in Tissue Isolated from Guinea Pigs.
The NK3-antagonistic action of test compounds was tested in ileal preparations isolated from guinea pigs. The preparations were kept in an oxygenated nutrient solution kept at 37° C. For measuring contraction of the longitudinal muscle of the ileum, the preparations were fixed to a hook and connected to force displacement transducers. Contractions were recorded on a pen recorder.
The NK3-receptors were stimulated with the NK3-receptor agonist [MePhe^7]-neurokinin B, causing a contraction of the muscle. Before (predrug) and after the administration of the test compound such contractions were measured and quantified in percent of the predrug contraction. 2-3 concentrations of the test compound were applied showing the inhibition of the receptor stimulation concentration dependently. […] The pIC50 value indicates the inhibitory potency of the test compounds to the NK3-receptor.

[2] = target: human NK1-receptor (Homo sapiens, UniProt P25103); experiment: Binding potency of the test substances to NK1-receptors in vitro ([3H]-Substance P displacement); conditions: human NK1-receptor in CHO cell membranes, average of at least three measurements, read-out: pKi, binding potency to NK1-receptors (converted)
human NK1-receptor, sequence (P25103 whole entry): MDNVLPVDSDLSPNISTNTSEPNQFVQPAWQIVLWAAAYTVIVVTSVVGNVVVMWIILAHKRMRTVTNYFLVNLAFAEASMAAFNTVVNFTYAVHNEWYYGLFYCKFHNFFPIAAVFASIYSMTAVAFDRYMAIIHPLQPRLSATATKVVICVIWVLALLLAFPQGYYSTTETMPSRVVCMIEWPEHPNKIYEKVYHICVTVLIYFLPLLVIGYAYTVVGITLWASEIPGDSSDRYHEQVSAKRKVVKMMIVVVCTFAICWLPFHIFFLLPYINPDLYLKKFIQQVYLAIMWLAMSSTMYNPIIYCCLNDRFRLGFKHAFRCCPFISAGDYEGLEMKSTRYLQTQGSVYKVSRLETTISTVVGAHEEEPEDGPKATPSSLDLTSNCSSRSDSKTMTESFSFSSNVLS
Method: 1. Determination of the Binding Potency of the Test Substances to NK1-Receptors in Vitro
The affinity of test compounds for NK1-receptors can be determined by measuring the ability of the test compound to displace a radiolabeled ligand from its specific binding site. The tests were performed at Solvay Pharmaceuticals, Weesp, The Netherlands.
Separation of bound radioactivity from free radioactivity was done by filtration through glass fiber filters (Packard GF/B) with several washings with ice-cold buffer solution. Bound radioactivity was measured with a liquid scintillation counter (total binding).
The inhibition constant (Ki) was calculated according to the Cheng-Prusoff equation, and listed as its negative logarithmic value (pKi). The pKi value describes the potency of a test compound to bind to a receptor.

[3] = target: T2, NK1-receptor (Cavia porcellus, UniProt P30547); experiment: Functional NK1-receptor antagonism in aortic ring preparations isolated from guinea pigs; conditions: Substance P-induced relaxation
T2 construct: from tissue; host or cells: whole animal (Pirbright-White guinea pigs), in vivo
T2 sequence (P30547 whole entry): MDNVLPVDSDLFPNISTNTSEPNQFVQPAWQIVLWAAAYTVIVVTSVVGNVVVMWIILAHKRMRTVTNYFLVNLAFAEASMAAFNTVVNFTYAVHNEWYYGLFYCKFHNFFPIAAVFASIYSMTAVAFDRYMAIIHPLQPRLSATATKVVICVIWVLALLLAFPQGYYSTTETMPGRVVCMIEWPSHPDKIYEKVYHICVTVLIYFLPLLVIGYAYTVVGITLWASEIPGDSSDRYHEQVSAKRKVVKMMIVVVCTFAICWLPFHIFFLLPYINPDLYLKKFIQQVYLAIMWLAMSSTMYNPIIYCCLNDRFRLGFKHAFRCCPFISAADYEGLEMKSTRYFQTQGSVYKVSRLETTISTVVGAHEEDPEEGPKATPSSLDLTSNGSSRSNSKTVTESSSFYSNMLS
Method: 5. Determination of Functional NK1-Receptor Antagonism of Test Compounds in Tissue Isolated from Guinea Pigs.
The NK1-antagonistic action of test compounds was tested in aortic ring preparations isolated from guinea pigs. The preparations were kept in an oxygenated nutrient solution kept at 37° C. For measuring contraction of the circular vascular muscle, the preparations were fixed to a hook and connected to force displacement transducers. Contractions/relaxations were recorded on a pen recorder. The preparations were given a medium tonus by addition of phenylephrine.
Before (predrug) and after the administration of the test compound such relaxations were measured and quantified in percent of the predrug relaxation. 2-3 concentrations of the test compound were applied showing the inhibition of the receptor stimulation concentration dependently. The concentration of half-maximal inhibition (IC50) and its negative logarithm pIC50=−log(IC50) was calculated. The pIC50 value indicates the inhibitory potency of the test compounds to the NK1-receptor.

**Q.** `CN(C)C(=O)C1(N2CCCCC2)CCN(CC[C@H](CN(C)C(=O)C2CCCCC2)c2ccc(Cl)c(Cl)c2)CC1` [compound 3] was tested. Which “pA2, functional NK3-antagonism on isolated guinea pig tissue” value [1] did it give?
**A.** Its value is 8.5.

**Q.** `CN(C)C(=O)C1(N2CCCCC2)CCN(CC[C@H](CN(C)C(=O)c2ccccc2)c2ccc(Cl)c(Cl)c2)CC1` [compound 1] was tested. Which Ki [2] did it give?
**A.** Its Ki is 79.4 nM.

**Q.** Which “pA2, functional NK3-antagonism on isolated guinea pig tissue” value [1] does the source give for `CN(C)C(=O)C1(N2CCCCC2)CCN(CC[C@H](CN(C)C(=O)c2ccc(F)cc2)c2ccc(Cl)c(Cl)c2)CC1` [compound 4] here?
**A.** The value was 8.0.

**Q.** How did the “pIC50, functional NK1-antagonism on isolated guinea pig tissue” value [3] turn out when `CN(C)C(=O)C1(N2CCCCC2)CCN(CC[C@H](CN(C)C(=O)c2cc(C#N)c3ccccc3c2)c2ccc(Cl)c(Cl)c2)CC1` [compound 11] was run?
**A.** The value was 8.26.
